According to PubChem BioAssay AID1963977 (Molecular Pharmacology Branch, DTP, NCI, 2024):
“And” between values parts separate entries of the source, which are not always exact repeats. Equal values may be shown once.

Tested on: 624824-186-R-J3-PDC multicell spheroids, viability
Assay: Anticancer human tumor 624824-186-R-J3-PDC patient-derived colon adenocarcinoma cell line growth inhibition [PI3K]
Details: for viability, T/C: stronger effect = lower value; active means viability on the fitted dose curve at most 10% of control; inactive means the rest
How it was run: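 Tumor cells were combined with HUVEC and MSCs into spheroids, then dosed with PI3K-inhibitor combinations over half-log ranges capped near clinical Cmax or 10 microM.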

[1] = curve of first compound, second compound 0.0316 µM
[2] = curve of first compound, second compound 0.1 µM
[3] = curve of first compound, second compound 0.316 µM
[4] = curve of first compound, second compound 1 µM
[5] = curve of first compound, second compound 3.16 µM
[6] = curve of first compound, second compound 10 µM
[7] = second compound 0.0316 µM, first compound 0.0316 µM
[8] = second compound 0.0316 µM, first compound 0.1 µM
[9] = second compound 0.0316 µM, first compound 0.316 µM
[10] = second compound 0.0316 µM, first compound 1 µM
[11] = second compound 0.0316 µM, first compound 3.16 µM
[12] = second compound 0.0316 µM, first compound 10 µM
[13] = second compound 0.1 µM, first compound 0.0316 µM
[14] = second compound 0.1 µM, first compound 0.1 µM
[15] = second compound 0.1 µM, first compound 0.316 µM
[16] = second compound 0.1 µM, first compound 1 µM
[17] = second compound 0.1 µM, first compound 3.16 µM
[18] = second compound 0.1 µM, first compound 10 µM
[19] = second compound 0.316 µM, first compound 0.0316 µM
[20] = second compound 0.316 µM, first compound 0.1 µM
[21] = second compound 0.316 µM, first compound 0.316 µM
[22] = second compound 0.316 µM, first compound 1 µM
[23] = second compound 0.316 µM, first compound 3.16 µM
[24] = second compound 0.316 µM, first compound 10 µM
[25] = second compound 1 µM, first compound 0.0316 µM
[26] = second compound 1 µM, first compound 0.1 µM
[27] = second compound 1 µM, first compound 0.316 µM
[28] = second compound 1 µM, first compound 1 µM
[29] = second compound 1 µM, first compound 3.16 µM
[30] = second compound 1 µM, first compound 10 µM
[31] = second compound 3.16 µM, first compound 0.0316 µM
[32] = second compound 3.16 µM, first compound 0.1 µM
[33] = second compound 3.16 µM, first compound 0.316 µM
[34] = second compound 3.16 µM, first compound 1 µM
[35] = second compound 3.16 µM, first compound 3.16 µM
[36] = second compound 3.16 µM, first compound 10 µM
[37] = second compound 10 µM, first compound 0.0316 µM
[38] = second compound 10 µM, first compound 0.1 µM
[39] = second compound 10 µM, first compound 0.316 µM
[40] = second compound 10 µM, first compound 1 µM
[41] = second compound 10 µM, first compound 3.16 µM
[42] = second compound 10 µM, first compound 10 µM
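Further: spheroids exposed to agents for seven days before luminescence read.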
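Wherever viability, T/C is given: luminescent signal used as a stand-in for spheroid viability; percent viability relative to DMSO vehicle control wells taken as 100%.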

Cn1nccc1Nc1nccc(-c2ccn(C(CO)c3ccc(Cl)c(F)c3)c(=O)c2)n1 (stereo not drawn) + Cc1nc(NC(=O)N2CCCC2C(N)=O)sc1-c1ccnc(C(C)(C)C(F)(F)F)c1
5010 nM: IC50 [2]
223 nM: IC50 [5]
100 nM: IC50 [6]
1570 nM: IC50 [3]
783 nM: IC50 [4]
inactive: viability, T/C [7] 119% | viability, T/C [8] 105% | viability, T/C [9] 90.7% | viability, T/C [10] 74.7% | viability, T/C [11] 55% | viability, T/C [12] 49.5% | viability, T/C [13] 109% | viability, T/C [14] 104% | viability, T/C [15] 83.6% | viability, T/C [16] 73% | viability, T/C [17] 56.3% | viability, T/C [18] 40.9% | viability, T/C [19] 106% | viability, T/C [20] 110% | viability, T/C [21] 78% | viability, T/C [22] 58% | viability, T/C [23] 42% | viability, T/C [24] 31.8% | viability, T/C [25] 103% | viability, T/C [26] 89.5% | viability, T/C [27] 72.7% | viability, T/C [28] 43.2% | viability, T/C [29] 29.6% | viability, T/C [30] 25.4% | viability, T/C [31] 84.5% | viability, T/C [32] 77.7% | viability, T/C [33] 37.6% | viability, T/C [34] 21.3% | viability, T/C [35] 17.8% | viability, T/C [36] 16.2% | viability, T/C [37] 62.2% | viability, T/C [38] 50.4% | viability, T/C [39] 27.3% | viability, T/C [40] 14.1%
active: viability, T/C [41] 10.9% | viability, T/C [42] 7.57%
8080 nM: IC50 [1]

Cn1ncnc1[C@H]1c2n[nH]c(=O)c3cc(F)cc(c23)N[C@@H]1c1ccc(F)cc1 + CC(Nc1ncnc2nc[nH]c12)c1cc2cccc(Cl)c2c(=O)n1-c1ccccc1
> 100 nM: IC50 [1] | IC50 [2] | IC50 [3] | IC50 [4] | IC50 [5] | IC50 [6]
inactive: viability, T/C (second compound 0.0316 µM, first compound 0.000316 µM) 104% | viability, T/C (second compound 0.0316 µM, first compound 0.001 µM) 101% | viability, T/C (second compound 0.0316 µM, first compound 0.00316 µM) 135% | viability, T/C (second compound 0.0316 µM, first compound 0.01 µM) 104% | viability, T/C [7] 116% | viability, T/C [8] 117% | viability, T/C (second compound 0.1 µM, first compound 0.000316 µM) 104% | viability, T/C (second compound 0.1 µM, first compound 0.001 µM) 96.3% | viability, T/C (second compound 0.1 µM, first compound 0.00316 µM) 107% | viability, T/C (second compound 0.1 µM, first compound 0.01 µM) 102% | viability, T/C [13] 95.9% | viability, T/C [14] 120% | viability, T/C (second compound 0.316 µM, first compound 0.000316 µM) 99.2% | viability, T/C (second compound 0.316 µM, first compound 0.001 µM) 108% | viability, T/C (second compound 0.316 µM, first compound 0.00316 µM) 110% | viability, T/C (second compound 0.316 µM, first compound 0.01 µM) 106% | viability, T/C [19] 114% | viability, T/C [20] 118% | viability, T/C (second compound 1 µM, first compound 0.000316 µM) 98.5% | viability, T/C (second compound 1 µM, first compound 0.001 µM) 105% | viability, T/C (second compound 1 µM, first compound 0.00316 µM) 105% | viability, T/C (second compound 1 µM, first compound 0.01 µM) 101% | viability, T/C [25] 111% | viability, T/C [26] 111% | viability, T/C (second compound 3.16 µM, first compound 0.000316 µM) 109% | viability, T/C (second compound 3.16 µM, first compound 0.001 µM) 107% | viability, T/C (second compound 3.16 µM, first compound 0.00316 µM) 109% | viability, T/C (second compound 3.16 µM, first compound 0.01 µM) 110% | viability, T/C [31] 104% | viability, T/C [32] 112% | viability, T/C (second compound 10 µM, first compound 0.000316 µM) 97.8% | viability, T/C (second compound 10 µM, first compound 0.001 µM) 93% | viability, T/C (second compound 10 µM, first compound 0.00316 µM) 101% | viability, T/C (second compound 10 µM, first compound 0.01 µM) 98.2% | viability, T/C [37] 90.1% | viability, T/C [38] 95.1%

CCN1CCN(Cc2ccc(Nc3ncc(F)c(-c4cc(F)c5nc(C)n(C(C)C)c5c4)n3)nc2)CC1
inactive: viability, T/C (compound 0.00316 µM) 108% (2×) and 105% and 107% | viability, T/C (compound 0.01 µM) 106% [middle of 4 runs] | viability, T/C (compound 0.0316 µM) 112% (2×) and 105% and 115% | viability, T/C (compound 0.1 µM) 107% [middle of 4 runs] | viability, T/C (compound 0.316 µM) 104% [middle of 4 runs] | viability, T/C (compound 1 µM) 104% [middle of 4 runs]
> 1000 nM: IC50 (curve of compound)

C#Cc1c(F)ccc2cc(O)cc(-c3ncc4c(N5CC6CCC(C5)N6)nc(OCC56CCCN5CC(F)C6)nc4c3F)c12 (stereo not drawn) + Cc1nc(NC(=O)N2CCCC2C(N)=O)sc1-c1ccnc(C(C)(C)C(F)(F)F)c1
> 10000 nM: IC50 [1] | IC50 [2] | IC50 [3] | IC50 [4] | IC50 [5] | IC50 [6]
inactive: viability, T/C [7] 108% | viability, T/C [8] 97% | viability, T/C [9] 121% | viability, T/C [10] 102% | viability, T/C [11] 108% | viability, T/C [12] 100% | viability, T/C [13] 111% | viability, T/C [14] 98.2% | viability, T/C [15] 94.9% | viability, T/C [16] 103% | viability, T/C [17] 116% | viability, T/C [18] 102% | viability, T/C [19] 103% | viability, T/C [20] 102% | viability, T/C [21] 108% | viability, T/C [22] 101% | viability, T/C [23] 112% | viability, T/C [24] 108% | viability, T/C [25] 100% | viability, T/C [26] 97.4% | viability, T/C [27] 114% | viability, T/C [28] 100% | viability, T/C [29] 112% | viability, T/C [30] 107% | viability, T/C [31] 88.9% | viability, T/C [32] 88.2% | viability, T/C [33] 83% | viability, T/C [34] 85.2% | viability, T/C [35] 98.2% | viability, T/C [36] 80.4% | viability, T/C [37] 71.4% | viability, T/C [38] 70.9% | viability, T/C [39] 68.9% | viability, T/C [40] 64.6% | viability, T/C [41] 58.8% | viability, T/C [42] 54.3%
